Reference: ChEMBL document CHEMBL1137793, “Synthesis and biological activity of analogs of fecapentaene-12” (J Nat Prod, 1987)

Experiments:
Details in all cases: salmonella enterica subsp. enterica serovar typhimurium
[1] = test system: Salmonella typhimurium; experiment: Toxicity in Salmonella Typhimurium TA98 at 5000 ng/plate after 48 hrs by Ames assay; format: organism-based
[2] = test system: Salmonella typhimurium; experiment: Toxicity in Salmonella Typhimurium TA98 at 10000 ng/plate after 48 hrs by Ames assay; format: organism-based
[3] = test system: Salmonella typhimurium; experiment: Mutagenic activity in Salmonella Typhimurium TA100 assessed as number of revertant colonies at 313 ng/plate after 48 hrs by Ames assay; format: toxicity, organism-based
[4] = test system: Salmonella typhimurium; experiment: Toxicity in Salmonella Typhimurium TA100 at 2500 ng/plate after 48 hrs by Ames assay; format: organism-based
[5] = test system: Salmonella typhimurium; experiment: Toxicity in Salmonella Typhimurium TA100 at 5000 ng/plate after 48 hrs by Ames assay; format: organism-based
[6] = test system: Salmonella typhimurium; experiment: Mutagenic activity in Salmonella Typhimurium TA100 assessed as number of revertant colonies at 36 ng/plate after 48 hrs by Ames assay; format: toxicity, organism-based
[7] = test system: Salmonella typhimurium; experiment: Mutagenic activity in Salmonella Typhimurium TA100 assessed as number of revertant colonies at 156 ng/plate after 48 hrs by Ames assay; format: toxicity, organism-based
[8] = test system: Salmonella typhimurium; experiment: Toxicity in Salmonella Typhimurium TA100 at 10000 ng/plate after 48 hrs by Ames assay; format: organism-based
[9] = test system: Salmonella typhimurium; experiment: Mutagenic activity in Salmonella Typhimurium TA100 assessed as number of revertant colonies at 78 ng/plate after 48 hrs by Ames assay; format: toxicity, organism-based
[10] = test system: Salmonella typhimurium; experiment: Mutagenic activity in aldehyde-sensitive Salmonella Typhimurium TA104 assessed as number of revertant colonies at 100000 ng/plate after 48 hrs by Ames assay; format: toxicity, organism-based
[11] = test system: Salmonella typhimurium; experiment: Mutagenic activity in Salmonella Typhimurium TA100 assessed as number of revertant colonies at 25000 ng/plate after 48 hrs by Ames assay; format: toxicity, organism-based
[12] = test system: Salmonella typhimurium; experiment: Mutagenic activity in Salmonella Typhimurium TA100 assessed as number of revertant colonies at 50000 ng/plate after 48 hrs by Ames assay; format: toxicity, organism-based
[13] = test system: Salmonella typhimurium; experiment: Mutagenic activity in Salmonella Typhimurium TA100 assessed as number of revertant colonies at 100000 ng/plate after 48 hrs by Ames assay; format: toxicity, organism-based
[14] = test system: Salmonella typhimurium; experiment: Mutagenic activity in Salmonella Typhimurium TA98 assessed as number of revertant colonies at 100000 ng/plate after 48 hrs by Ames assay; format: toxicity, organism-based
[15] = test system: Salmonella typhimurium; experiment: Mutagenic activity in Salmonella Typhimurium TA98 assessed as number of revertant colonies at 50000 ng/plate after 48 hrs by Ames assay; format: toxicity, organism-based
[16] = test system: Salmonella typhimurium; experiment: Mutagenic activity in aldehyde-sensitive Salmonella Typhimurium TA104 assessed as number of revertant colonies at 25000 ng/plate after 48 hrs by Ames assay; format: toxicity, organism-based
[17] = test system: Salmonella typhimurium; experiment: Mutagenic activity in aldehyde-sensitive Salmonella Typhimurium TA104 assessed as number of revertant colonies at 50000 ng/plate after 48 hrs by Ames assay; format: toxicity, organism-based
[18] = test system: Salmonella typhimurium; experiment: Toxicity in aldehyde-sensitive Salmonella Typhimurium TA104 at 5000 ng/plate after 48 hrs by Ames assay; format: organism-based
[19] = test system: Salmonella typhimurium; experiment: Toxicity in aldehyde-sensitive Salmonella Typhimurium TA104 at 2500 ng/plate after 48 hrs by Ames assay; format: organism-based
[20] = test system: Salmonella typhimurium; experiment: Toxicity in aldehyde-sensitive Salmonella Typhimurium TA104 at 10000 ng/plate after 48 hrs by Ames assay; format: organism-based

Compound	Activity [1]	Activity [2]	Activity [3]	Activity [4]	Activity [5]	Activity [6]	Activity [7]	Activity [8]	Activity [9]	Activity [10]	Activity [11]	Activity [12]	Activity [13]	Activity [14]	Activity [15]	Activity [16]	Activity [17]	Activity [18]	Activity [19]	Activity [20]
CC/C=C/C=C/C=C/C=C/C=C/OC[C@@H](O)CO	Toxic	Toxic	612	Toxic	Toxic	187	459	Toxic	306											
CC/C=C/C=C/C=C/C=C/C=O										181	185	187	221	23	24	165	186			
CC/C=C/C=C/C=C/C=C/C=C/OCC(O)CO (racemic)	Toxic	Toxic	799	Toxic	Toxic	184	561	Toxic	204									Toxic	Toxic	Toxic
